Reference: patent EP4786487A1, “PEPTIDE” (Peptidream Inc, priority 2023, dated 2025)
Read-outs that look alike come from different tables or passages of the source. Starred links: 1 amine or outer side, 2 acyl side, 3 side chain; linkers in the order of their positions; H or OH if unused. Positions of bridges follow the written chain, without caps; N, C: chain ends. Non-standard residues stand in square brackets, D forms with d. Residues, ends and D or L forms follow the SMILES beside them. No end group written: not given here. *: point of attachment. Trp(6-OH,1-(4-HO2C-Ph)) = N[C@@H](Cc1cn(-c2ccc(C(=O)O)cc2)c2cc(O)ccc12)C(=O)O; Phe(4-(4-pyridyl)) = N[C@@H](Cc1ccc(-c2ccncc2)cc1)C(=O)O; Phe(3-OCH2COOH) = N[C@@H](Cc1cccc(OCC(=O)O)c1)C(=O)O; NMePhe(4-CH2NH2) = CN[C@@H](Cc1ccc(CN)cc1)C(=O)O; Piperidine(4-CH2CH2CONH2) = NC(=O)CCC1CCN(*)CC1; Trp(6-OH) = N[C@@H](Cc1c[nH]c2cc(O)ccc12)C(=O)O; Phe(4-COOH) = N[C@@H](Cc1ccc(C(=O)O)cc1)C(=O)O; Trp(7-aza) = N[C@@H](Cc1c[nH]c2ncccc12)C(=O)O; Bip = N[C@@H](Cc1ccc(-c2ccccc2)cc1)C(=O)O; Gly(decyl) = CCCCCCCCCC[C@H](N)C(=O)O; Gly(N(CH2)3COOH) = O=C(O)CCCNCC(=O)O; X1 = CCCCCCC[C@H](N[*:1])C(=O)[*:2]; NMeF = CN[C@@H](Cc1ccccc1)C(=O)O; 4Pal = N[C@@H](Cc1ccncc1)C(=O)O; NMeE = CN[C@@H](CCC(=O)O)C(=O)O; hSer = N[C@@H](CCO)C(=O)O; Carboxymethyl = O=C(O)C*; NMeA = CN[C@@H](C)C(=O)O; Sar = CNCC(=O)O; Propyl = CCC*

Assays:
Format in all cases: cell-based
GDF-11 = target: T1, GDF-11 (Homo sapiens, UniProt O95390); assay: Reporter gene assay for myostatin signaling in HepG2 cell line, Evaluation Procedure (1), GDF-11 inhibition
T1 construct: purchased R&D systems 1958-GD-G8/CF
T1 sequence (O95390 299-407): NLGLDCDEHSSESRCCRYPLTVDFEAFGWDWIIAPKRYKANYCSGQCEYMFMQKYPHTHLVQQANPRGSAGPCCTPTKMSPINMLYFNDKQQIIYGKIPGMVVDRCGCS
Method: (§1) In this Example, the in vitro myostatin inhibitory effects of the peptides synthesized in Examples 1 and 2 were evaluated using a reporter gene assay for myostatin signaling in HepG2 cell line.
(§2) HepG2 cell line (HB-8065, ATCC) cultured in EMEM (055-08975, WAKO Industries) containing 10% FBS (10270106, Gibco) and 50 µg/mL gentamicin (11980-14, Nacalai Tesque) was seeded in 96-well plates (167008, Thermo) at 2.0 × 10^4 cells/well and incubated in a CO2 incubator (37°C, 5% CO2) for 24 hours. The pGL3(CAGA)12-luc plasmid, namely a pGL3 vector (E1751, Promega) having a luciferase gene inserted downstream of a promoter sequence with 12 CAGA repeats attached, was added to the wells along with a transfection reagent (X-treamGENE9 DNA Transfection Reagent, 6365809001, Roche) at a concentration of 0.04 µg/well. The cell line was cultured in a CO2 incubator (37°C, 5% CO2) for 24 hours for transfection. The medium was discarded and replaced with EMEM containing 50 µL/well of 0.1% bovine serum albumin (A7030, Sigma) and 50 µg/mL gentamicin, and incubated in a CO2 incubator (37°C, 5% CO2) for 2 hours.
(§3) Myostatin (788-G8/C, R&D systems) or GDF-11 (1958-GD-G8/CF, R&D systems) was added so that the final concentrations were those listed in Table 5.
(§4) A 4-fold dilution series of various peptides synthesized in Examples 1 and 2 was added to achieve 0.006-100 nmol/L (myostatin inhibition) and 0.12-2000 nmol/L (GDF-11 inhibition). At this time, blank wells, in which neither myostatin, GDF-11, nor each peptide was added, were also prepared and incubated in a CO2 incubator (37°C, 5% CO2) for 20 to 24 hours.
(§5) The medium containing the cells was removed, and a mixture containing PBS (14190144, Thermo) and a chromogenic substrate One-Glo Luciferase Assay System (E6120, Promega) at a ratio of 1:1 was added to each well at 100 µL/well. This was stirred with a plate shaker for 5 min and transferred to a 384-well plate (3570, Corning) at a volume of 20 µL/well.
(§6) The plate was centrifuged at 1,000 × g for 1 min and the luminescence signal (700 nm luminescence) was measured using a plate reader (Envision 2104, PerkinElmer). Based on the measured values, IC50 values of the peptides were calculated using software (Prism 9, GraphPad). […]
(§7) In this Example, the in vitro myostatin inhibitory effects of the peptides synthesized in Examples 10 and 11 were evaluated according to the Evaluation Procedure (1) in Example 3.

Myostatin [1] = target: T2, Myostatin (Homo sapiens, UniProt O14793); assay: Reporter gene assay for myostatin signaling in HepG2 cell line, Evaluation Procedure (1), myostatin inhibition
T2 construct: active myostatin (also called mature myostatin) is a homodimer consisting of two C-terminal growth factor domains; purchased R&D systems 788-G8/CF
T2 sequence (O14793 267-375): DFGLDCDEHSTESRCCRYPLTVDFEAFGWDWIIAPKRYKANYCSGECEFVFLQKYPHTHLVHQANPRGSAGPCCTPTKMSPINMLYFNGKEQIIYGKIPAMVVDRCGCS
Method: as §1, §2, §3, §4, §5, §6, §7

Myostatin [2] = assay: as above; details: for Selectivity: GDF-11 IC50 versus Myostatin IC50
Method: as §1, §2, §3, §4, §5, §6, §7

[3] = Method A: GDF-11 10 ng/mL, read-out: IC50 (Luciferase) GDF-11 HepG2
[4] = Method A: Myostatin 10 ng/mL, read-out: IC50 (Luciferase) Myostatin HepG2

Molecule | IC50 (GDF-11; [3]) [nM] | IC50 (Myostatin [1]; [4]) [nM] | Selectivity (Myostatin [2]; Method A) | further results
CC[C@H](C)[C@@H]1NC(=O)[C@H](Cc2ccccc2)N(C)C(=O)[C@H](Cc2ccc(O)cc2)NC(=O)[C@H](Cc2ccc(-c3ccccc3)cc2)NC(=O)[C@H](C)NC(=O)CN(CCCC(=O)O)C(=O)CSC[C@H](C(=O)O)NC(=O)[C@H](Cc2ccccc2)N(C)C(=O)[C@H](C)N(C)C(=O)[C@H](CC(C)C)NC(=O)[C@H](Cc2ccccc2)N(C)C(=O)[C@H](CCCNC(=N)N)NC(=O)[C@H](Cc2ccc(C(=O)O)cc2)NC(=O)[C@H](Cc2cccc(OCC(=O)O)c2)NC(=O)CN(C)C1=O [Myostatin_99_v184] ({CH2CO}-[Gly(N(CH2)3COOH)]A[Bip]Y[NMeF]I[Sar][Phe(3-OCH2COOH)][Phe(4-COOH)]R[NMeF]L[NMeA][NMeF][dC]-OH; thioether N-15) | 1830 | 14.2 | 129 | –
CCCCCCC[C@@H]1NC(=O)[C@H](Cc2ccccc2)N(C)C(=O)[C@H](CCCNC(=N)N)NC(=O)[C@H](Cc2ccc(C(=O)O)cc2)NC(=O)[C@H](Cc2ccc(O)cc2)NC(=O)CN(C)C(=O)[C@H]([C@@H](C)CC)NC(=O)[C@H](Cc2ccccc2)N(C)C(=O)[C@H](Cc2ccc(O)cc2)NC(=O)[C@H](Cc2c[nH]c3ncccc23)NC(=O)[C@H](C)NC(=O)CN(CCCC(=O)O)C(=O)CSC[C@H](C(=O)O)NC(=O)[C@H](Cc2ccccc2)N(C)C(=O)[C@H](C)N(C)C1=O [Myostatin_99_v168] ({CH2CO}-[Gly(N(CH2)3COOH)]A[Trp(7-aza)]Y[NMeF]I[Sar]Y[Phe(4-COOH)]R[NMeF][X1][NMeA][NMeF][dC]-OH; thioether N-15) | 119 | 2.1 | 57 | –
CCCOCC[C@@H]1NC(=O)[C@H](Cc2ccccc2)N(C)C(=O)[C@H](CCCNC(=N)N)NC(=O)[C@H](Cc2ccc(C(=O)O)cc2)NC(=O)[C@H](Cc2ccncc2)NC(=O)CN(C)C(=O)[C@H]([C@@H](C)CC)NC(=O)[C@H](Cc2ccccc2)N(C)C(=O)[C@H](Cc2ccc(O)cc2)NC(=O)[C@H](Cc2c[nH]c3ccccc23)NC(=O)[C@H](C)NC(=O)CN(CCCC(=O)O)C(=O)CSC[C@H](C(=O)O)NC(=O)[C@H](Cc2ccccc2)N(C)C(=O)[C@H](C)N(C)C1=O [Myostatin_99_v230] ({CH2CO}-[Gly(N(CH2)3COOH)]AWY[NMeF]I[Sar][4Pal][Phe(4-COOH)]R[NMeF][hSer](Propyl)[NMeA][NMeF][dC]-OH; thioether N-15) | 8370 | 57.1 | 147 | –
CC[C@H](C)[C@@H]1NC(=O)[C@H](Cc2ccccc2)N(C)C(=O)[C@H](Cc2ccc(O)cc2)NC(=O)[C@H](Cc2c[nH]c3ccccc23)NC(=O)[C@H](CO)NC(=O)CN(CCCC(=O)O)C(=O)CSC[C@H](C(=O)O)NC(=O)[C@H](Cc2ccccc2)N(C)C(=O)[C@H](C)N(C)C(=O)[C@H](CC(C)C)NC(=O)[C@H](Cc2ccccc2)N(C)C(=O)[C@H](CCCNC(=N)N)NC(=O)[C@H](Cc2ccc(C(=O)O)cc2)NC(=O)[C@H](Cc2ccc(O)cc2)NC(=O)[C@H](C)N(C)C1=O [Myostatin_99_v188] ({CH2CO}-[Gly(N(CH2)3COOH)]SWY[NMeF]I[NMeA]Y[Phe(4-COOH)]R[NMeF]L[NMeA][NMeF][dC]-OH; thioether N-15) | 911 | 55.4 | 16 | –
CC[C@H](C)[C@@H]1NC(=O)[C@H](Cc2ccccc2)N(C)C(=O)[C@H](Cc2ccc(O)cc2)NC(=O)[C@H](Cc2ccc(-c3ccncc3)cc2)NC(=O)CNC(=O)CN(CCCC(=O)O)C(=O)CSC[C@H](C(=O)O)NC(=O)[C@H](Cc2ccccc2)N(C)C(=O)[C@H](C)N(C)C(=O)[C@H](CC(C)C)NC(=O)[C@H](Cc2ccccc2)N(C)C(=O)[C@H](CCCNC(=N)N)NC(=O)[C@H](Cc2ccc(OCC(=O)O)cc2)NC(=O)[C@H](Cc2cccc(OCC(=O)O)c2)NC(=O)[C@H](C)N(C)C1=O [Myostatin_99_v91] ({CH2CO}-[Gly(N(CH2)3COOH)]G[Phe(4-(4-pyridyl))]Y[NMeF]I[NMeA][Phe(3-OCH2COOH)]Y(Carboxymethyl)R[NMeF]L[NMeA][NMeF][dC]-OH; thioether N-15) | 7380 | 72.3 | 102 | –
CCCCCCCCCC[C@@H]1NC(=O)[C@H](Cc2ccccc2)N(C)C(=O)[C@H](CCCNC(=N)N)NC(=O)[C@H](Cc2ccc(C(=O)O)cc2)NC(=O)[C@H](Cc2cccc(OCC(=O)O)c2)NC(=O)[C@H]2CCCN2C(=O)[C@H]([C@@H](C)CC)NC(=O)[C@H](Cc2ccccc2)N(C)C(=O)[C@H](Cc2ccc(O)cc2)NC(=O)[C@H](Cc2c[nH]c3cc(O)ccc23)NC(=O)[C@H](C)NC(=O)[C@H](C)NC(=O)CSC[C@H](C(=O)N2CCC(CCC(N)=O)CC2)NC(=O)[C@H](Cc2ccccc2)N(C)C(=O)[C@H](CCC(=O)O)N(C)C1=O [Myostatin_99_v382] ({CH2CO}-AA[Trp(6-OH)]Y[NMeF]I[dP][Phe(3-OCH2COOH)][Phe(4-COOH)]R[NMeF][Gly(decyl)][NMeE][NMeF][dC]-{Piperidine(4-CH2CH2CONH2)}; thioether N-15) | – | – | – | IC50 (GDF-11; Method D: GDF-11 1.5 ng/mL, read-out: IC50 (Luciferase) GDF-11 HepG2): 29.6 nM; IC50 (Myostatin [1]; Method D: Myostatin 1.5 ng/mL, read-out: IC50 (Luciferase) Myostatin HepG2): 0.04 nM; Selectivity (Myostatin [2]; Method D): 711.775
CCCCCCC[C@@H]1NC(=O)[C@@H]2Cc3ccc(cc3)CNC(=O)C[C@H](NC(=O)CSC[C@H](C(=O)O)NC(=O)[C@H](Cc3ccccc3)N(C)C(=O)[C@H](C)N(C)C1=O)C(=O)N[C@@H](C)C(=O)N[C@@H](Cc1c[nH]c3ccccc13)C(=O)N[C@@H](Cc1ccc(O)cc1)C(=O)N(C)[C@@H](Cc1ccccc1)C(=O)N[C@@H]([C@@H](C)CC)C(=O)N(C)[C@@H](C)C(=O)N[C@@H](Cc1cccc(OCC(=O)O)c1)C(=O)N[C@@H](Cc1ccc(C(=O)O)cc1)C(=O)N[C@@H](CCCNC(=N)N)C(=O)N2C [Myostatin_99_v386] ({CH2CO}-DAWY[NMeF]I[NMeA][Phe(3-OCH2COOH)][Phe(4-COOH)]R[NMePhe(4-CH2NH2)][X1][NMeA][NMeF][dC]-OH; lactam 1-11 (inferred); thioether N-15 (inferred); N-terminus and C-terminus assumed) | – | – | – | Selectivity (Myostatin [2]; Method D): 294.1
A-R-W-Y-MeF-I-MeG-Y-Y-R-MeF-L-MeA-MeF-C (ARWY[NMeF]I[Sar]YYR[NMeF]L[NMeA][NMeF]C) [SEQ ID NO: 1] | – | – | – | inhibitory activity against myostatin (Myostatin [2]; HepG2 reporter assays, statement in words): confirmed to have myostatin inhibitory activity
CCCCCCC[C@@H]1NC(=O)[C@H](Cc2ccccc2)N(C)C(=O)[C@H](CCCNC(=N)N)NC(=O)[C@H](Cc2ccc(C(=O)O)cc2)NC(=O)[C@H](Cc2cccc(OCC(=O)O)c2)NC(=O)[C@H]2CCCN2C(=O)[C@H]([C@@H](C)CC)NC(=O)[C@H](Cc2ccccc2)N(C)C(=O)[C@H](Cc2ccc(O)cc2)NC(=O)[C@H](Cc2cn(-c3ccc(C(=O)O)cc3)c3cc(O)ccc23)NC(=O)[C@H](C)NC(=O)CN(CCCC(=O)O)C(=O)CSC[C@H](C(=O)N2CCC(CCC(N)=O)CC2)NC(=O)[C@H](Cc2ccccc2)N(C)C(=O)[C@H](C)N(C)C1=O [Myostatin_99_v488] ({CH2CO}-[Gly(N(CH2)3COOH)]A[Trp(6-OH,1-(4-HO2C-Ph))]Y[NMeF]I[dP][Phe(3-OCH2COOH)][Phe(4-COOH)]R[NMeF][X1][NMeA][NMeF][dC]-{Piperidine(4-CH2CH2CONH2)}; thioether N-15) | – | – | – | IC50 (GDF-11; HepG2, luciferase reporter, Evaluation Procedure (1), Method D, read-out: IC50 (Luciferase) GDP-11 HepG2): 53.2 nM; IC50 (Myostatin [1]; HepG2, luciferase reporter, Evaluation Procedure (1), Method D): 0.18 nM
